Data published in paper PMC9151520 (Archives of Toxicology, 2022).
Several values for one entry are separate records, joined by “and”; a condition that tells them apart may be missing. Identical values can stand only once. Like-named read-outs stand apart in the source and are kept apart here.

Key:
[1] = tested on: p53 signaling (p53RE-bla HCT-116 cells)
[2] = tested on: p53 signaling (p53RE-bla HCT-116 cells); assay: cells; format: cell-based
[3] = tested on: p53 signaling (p53RE-bla HCT-116 cells); remark: listed apart in the source
[4] = tested on: p53RE-bla HCT-116 cells
[5] = read-out: p53 activation EC50, cherry pick confirmation
[6] = read-out: p53 activation EC50, primary screening
[7] = Homo sapiens, HCT-116, read-out: EC50, p53 activation, primary screening
[8] = Homo sapiens, HCT-116, read-out: Efficacy, p53 activation, primary screening
[9] = Homo sapiens, HCT-116, read-out: p53 activation EC50, cherry pick confirmation
[10] = Homo sapiens, HCT-116, read-out: p53 activation EC50, primary screening
[11] = Homo sapiens, HCT-116, read-out: p53 activation efficacy, cherry pick confirmation
[12] = Homo sapiens, HCT-116, read-out: p53 activation efficacy, primary screening

SMILES | p53 activation EC50, cherry pick confirmation [1] | p53 activation EC50, primary screening [1] | p53 activation efficacy, cherry pick confirmation [1] | p53 activation efficacy, primary screening [1] | p53 activation efficacy, cherry pick confirmation [2] | p53 activation EC50, cherry pick confirmation [3] | p53 activation EC50, primary screening [3] | p53 activation efficacy, cherry pick confirmation [3] | p53 activation efficacy, primary screening [3] | Viability EC50, cherry pick confirmation [4] | Viability EC50, primary screening [4] | Viability efficacy, cherry pick confirmation [4] | Viability efficacy, primary screening [4] | EC50, p53 activation, cherry pick confirmation [1] | EC50, p53 activation, primary screening [1] | Efficacy, p53 activation, cherry pick confirmation [1] | Efficacy, p53 activation, primary screening [1] | EC50, p53 activation, cherry pick confirmation [3] | EC50 [2, 10] [µM] | Emax [2, 12] [%] | other results
O=c1n(CC2CO2)c(=O)n(CC2CO2)c(=O)n1CC1CO1 (centres unmarked) [Tris(2,3-epoxypropyl)isocyanurate] | inactive | inactive | inactive | inactive | 90.7567 | inactive | inactive | inactive | inactive | inactive | inactive | inactive | inactive | – | – | – | – | – | – | – | p53 activation efficacy, primary screening [2]: 99.0367; EC50 [2, 5]: 27.9 µM; EC50 [2, 6]: 23.7 µM
O=[Se](O)O [Selenious acid] | – | – | – | – | – | – | – | – | – | – | – | – | – | inactive | inactive | inactive | inactive | inactive | – | – | EC50, p53 activation, cherry pick confirmation [2]: inactive; Efficacy, p53 activation, cherry pick confirmation [2]: inactive; Efficacy, p53 activation, primary screening [2]: 32.672; EC50 ([2]; read-out: EC50, p53 activation, primary screening): 45.1 µM; EC50, p53 activation, primary screening [3]: inactive; Efficacy, p53 activation, cherry pick confirmation [3]: inactive; Efficacy, p53 activation, primary screening [3]: inactive; EC50, viability, cherry pick confirmation [4]: inactive; EC50, viability, primary screening [4]: inactive; EC50 ([4]; read-out: EC50, viability, cherry pick confirmation): 25.8 µM; EC50 ([4]; read-out: EC50, viability, primary screening): 42.9 µM
O=c1c(O)c(-c2ccc(O)c(O)c2)oc2cc(O)cc(O)c12 [Quercetin] | – | – | – | – | – | – | – | – | – | – | – | – | – | inactive | inactive | inactive | inactive | inactive | – | – | EC50, p53 activation, cherry pick confirmation [2]: inactive; Efficacy, p53 activation, cherry pick confirmation [2]: inactive; EC50 [2, 7]: 45.8 µM; Emax [2, 8]: 31.7%; EC50, p53 activation, primary screening [3]: inactive; Efficacy, p53 activation, cherry pick confirmation [3]: inactive; Efficacy, p53 activation, primary screening [3]: inactive; EC50, viability, cherry pick confirmation [4]: inactive; EC50, viability, primary screening [4]: inactive; Efficacy, viability, cherry pick confirmation [4]: inactive; Efficacy, viability, primary screening [4]: inactive
CC(=O)Oc1ccc(C2(c3ccc(OC(C)=O)cc3)Oc3ccccc3NC2=O)cc1 [Bisoxatin acetate] | inactive | inactive | inactive | inactive | – | inactive | inactive | inactive | inactive | inactive | inactive | inactive | inactive | – | – | – | – | – | 3.99 | 63.9 | EC50 [2, 9]: 0.665 µM; Emax [2, 11]: 31.4%
Cc1cc(C2CCCCC2)n(O)c(=O)c1 [Ciclopirox olamine] | – | – | – | – | – | – | – | – | – | – | – | – | – | inactive | inactive | inactive | inactive | inactive | – | – | EC50 ([2]; Homo sapiens, HCT-116, read-out: EC50, p53 activation, cherry pick confirmation): 26.5 µM; EC50 [2, 7]: 16.3 µM; Emax ([2]; Homo sapiens, HCT-116, read-out: Efficacy, p53 activation, cherry pick confirmation): 57.2%; Emax [2, 8]: 26%; EC50, p53 activation, primary screening [3]: inactive; Efficacy, p53 activation, cherry pick confirmation [3]: inactive; Efficacy, p53 activation, primary screening [3]: inactive; EC50, viability, cherry pick confirmation [4]: inactive; EC50, viability, primary screening [4]: inactive; Efficacy, viability, cherry pick confirmation [4]: inactive; Efficacy, viability, primary screening [4]: inactive
CCC[S+]([O-])c1ccc2[nH]c(NC(=O)OC)nc2c1 (centres unmarked) [Albendazole oxide] | inactive | inactive | inactive | inactive | – | inactive | inactive | inactive | inactive | inactive | inactive | inactive | inactive | – | – | – | – | – | 12.8 | 33.8 | EC50 [2, 9]: 20.5 µM; Emax [2, 11]: 37.2%
CCCCNC(=O)OCC#CI [3-Iodo-2-propynyl-N-butylcarbamate] | inactive | inactive | inactive | inactive | 104.439 | inactive | inactive | inactive | inactive | inactive | inactive | inactive | inactive | – | – | – | – | – | – | – | p53 activation efficacy, primary screening [2]: 78.699; EC50 [2, 5]: 34.4 µM; EC50 [2, 6]: 47.6 µM
CNC(=O)c1ccccc1Sc1ccc2c(/C=C/c3ccccn3)n[nH]c2c1 [Axitinib] | inactive | inactive | inactive | inactive | – | inactive | inactive | inactive | inactive | inactive | inactive | inactive | inactive | – | – | – | – | – | 1.41 | 83.4 | Emax [2, 11]: 56%
O=C(O)Cc1cc(I)c(Oc2ccc(O)c(I)c2)c(I)c1 [Tiratricol] | – | – | – | – | – | – | – | – | – | – | – | – | – | – | – | – | – | – | – | – | p53 activation EC50 [1]: inactive; p53 activation efficacy [1]: inactive; p53 activation efficacy [2]: 79.5057 and 58.391; EC50 ([2]; Homo sapiens, HCT-116, read-out: p53 activation EC50): 16.5 µM; EC50 ([2]; read-out: p53 activation EC50): 10.7 µM; p53 activation EC50 [3]: inactive; p53 activation efficacy [3]: inactive; Viability EC50 [4]: inactive; Viability efficacy [4]: inactive
C[C@]12CC[C@@H]3c4ccc(O)cc4CC[C@H]3[C@@H]1CC[C@H]2O [17alpha-Estradiol] | inactive | inactive | inactive | inactive | inactive | inactive | inactive | inactive | inactive | inactive | inactive | inactive | inactive | – | – | – | – | – | 12.3 | 54.4 | p53 activation EC50, cherry pick confirmation [2]: inactive
